Entries after “also recorded” stand apart in the source; their conditions may differ. Where two headings read alike, the source gives them in different places.
Key:
[1] = target: T1, human 9-cis retinol dehydrogenase (9cRDH) (Homo sapiens, UniProt Q92781); test: Inhibition of recombinant human 9cRDH activity (9-cis-retinol oxidation, CHO cell homogenate, HPLC); assay type: biochemical; details: for influence of SCAD/alcohol dehydrogenase inhibiting reagents on recombinant human 9cRDH activity: carbenoxolone 0.5 mM, all others 1 mM; for inhibition of human 9cRDH activity (in words) / IC50: 10 μM 9-cis-retinol; for IC50: 15 min, 37° C., CHO cell homogenate, read-out: Estimated inhibitor concentration resulting in 50% inhibition of human 9-cis retinol dehydrogenase activity (ID50)
T1 sequence (Q92781 1-318): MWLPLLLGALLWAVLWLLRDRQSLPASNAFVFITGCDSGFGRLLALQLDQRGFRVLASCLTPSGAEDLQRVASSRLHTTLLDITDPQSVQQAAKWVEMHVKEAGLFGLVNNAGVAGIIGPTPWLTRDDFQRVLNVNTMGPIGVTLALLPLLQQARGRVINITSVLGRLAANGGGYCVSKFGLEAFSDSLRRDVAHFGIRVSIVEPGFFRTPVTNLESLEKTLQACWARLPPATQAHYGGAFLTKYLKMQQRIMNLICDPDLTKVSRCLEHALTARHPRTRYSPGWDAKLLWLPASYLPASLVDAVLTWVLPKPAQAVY

mouse 9cRDH = target: T2, mouse 9cRDH (Mus musculus, UniProt O55240); test: Inhibition of recombinant mouse 9cRDH activity (9-cis-retinol oxidation, CHO cell homogenate, HPLC); assay type: biochemical; details: for influence of SCAD/alcohol dehydrogenase inhibiting reagents on recombinant mouse 9cRDH activity: carbenoxolone 0.5 mM, all others 1 mM; for inhibition of mouse 9cRDH activity (in words): 10 μM 9-cis-retinol
T2 sequence (O55240 1-318): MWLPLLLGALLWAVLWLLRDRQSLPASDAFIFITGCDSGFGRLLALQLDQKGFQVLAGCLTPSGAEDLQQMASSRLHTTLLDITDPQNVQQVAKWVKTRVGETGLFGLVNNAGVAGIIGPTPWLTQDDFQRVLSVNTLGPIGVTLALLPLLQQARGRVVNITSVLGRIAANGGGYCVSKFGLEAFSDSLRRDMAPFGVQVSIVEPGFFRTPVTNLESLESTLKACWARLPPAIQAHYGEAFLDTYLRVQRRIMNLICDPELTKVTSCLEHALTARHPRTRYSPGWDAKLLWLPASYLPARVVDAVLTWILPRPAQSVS

[2] = 10 μM steroid, equimolar to substrate, forward (retinol oxidation) or reverse (retinaldehyde reduction) direction

Question: How did the “inhibition of human 9cRDH activity by hydroxysteroids” value [1, 2] turn out when `C[C@]12CCC(=O)C=C1CC[C@@H]1[C@@H]2CC[C@]2(C)C(=O)CC[C@@H]12` [4-androstene-3,17dione] was run?
Answer: The value was “none of these hydroxysteroids inhibited”.

Question: And the “inhibition of mouse 9cRDH activity by hydroxysteroids” value (mouse 9cRDH; [2])?
Answer: The value was “none of these hydroxysteroids inhibited”.

Question: What does the source list for `Cc1cn[nH]c1` [4-methylpyrazole]?
Answer: influence of SCAD/alcohol dehydrogenase inhibiting reagents on recombinant human 9cRDH activity ([1]; phenylarsine oxide 15 μM): none of these compounds influenced; influence of SCAD/alcohol dehydrogenase inhibiting reagents on recombinant mouse 9cRDH activity (mouse 9cRDH; phenylarsine oxide 15 μM): none of these compounds influenced

Question: With `C[C@]12CCC(=O)C[C@@H]1CC[C@@H]1[C@@H]2CC[C@]2(C)C(=O)CC[C@@H]12` [5α-androstane-3,17dione] as the molecule, how does the “inhibition of human 9cRDH activity by hydroxysteroids” value [1] read?
Answer: Its value is “none of these hydroxysteroids inhibited”.

Question: And the “inhibition of mouse 9cRDH activity by hydroxysteroids” value (mouse 9cRDH)?
Answer: Its value is “none of these hydroxysteroids inhibited”.

Question: What does the source list for `C[C@]12CC[C@H](O)C[C@@H]1CC[C@@H]1[C@@H]2CC[C@]2(C)[C@@H](O)CC[C@@H]12` [5α-androstane-3β, 17βdiol]?
Answer: inhibition of human 9cRDH activity by hydroxysteroids [1, 2]: none of these hydroxysteroids inhibited; inhibition of mouse 9cRDH activity by hydroxysteroids (mouse 9cRDH; [2]): none of these hydroxysteroids inhibited

Question: How did the “effect on 9cRDH activity expressed in CHO cells (first series)” value (“effect on 9cRDH activity expressed” below) ([1]; NaCl up to 1 M, β-mercaptoethanol, dithiothreitol 1 mM, Triton X-100, sodium cholate 1% (w/v)) turn out when `O=C(O)CN(CCN(CC(=O)O)CC(=O)O)CC(=O)O` [EDTA] was run?
Answer: Its value is “not inhibited”.

Question: How did the “times (fold) less potent than 13-cis retinoic acid as inhibitor of 9cRDH” value [1] turn out when `CCCCCCCC/C=C\CCCCCCCC(=O)O` [Oleic Acid, oleic acid] was run?
Answer: Its value is “approximately 100”.

Question: And the “inhibition of human 9cRDH activity (in words)” value [1]?
Answer: The value was “mild inhibitor; also recorded: only very weak inhibitors; also recorded: weakly inhibited”.

Question: What about the IC50 [1] of the same molecule?
Answer: The IC50 was 15 µM.

Question: What about the “inhibition of mouse 9cRDH activity (in words)” value (mouse 9cRDH) of the same molecule?
Answer: The value was “only very weak inhibitors”.

Question: For `CCCCCCCC/C=C\CCCCCCCCO` [Oleyl Alcohol, oleyl alcohol], which “inhibition of human 9cRDH activity (in words)” value [1] is on record?
Answer: The value was “did not inhibit; also recorded: only very weak inhibitors; also recorded: not an inhibitor”.

Question: And the IC50 [1]?
Answer: The IC50 was over 100 µM.

Question: What about the “inhibition of mouse 9cRDH activity (in words)” value (mouse 9cRDH) of the same molecule?
Answer: Its value is “only very weak inhibitors”.

Question: Which IC50 [1] does the source give for `CCCCCCCCCCCCCCCC(=O)O` [Palmitic Acid, palmitic acid] here?
Answer: The IC50 was over 100 µM.

Question: And the “inhibition of human 9cRDH activity (in words)” value ([1]; listed as Palmitic acid)?
Answer: Its value is “not an inhibitor”.

Question: What about the “inhibition of human 9cRDH activity (in words)” value ([1]; listed as palmitic acid) of the same molecule?
Answer: Its value is “not inhibitory; also recorded: only very weak inhibitors”.

Question: What about the “inhibition of mouse 9cRDH activity (in words)” value (mouse 9cRDH) of the same molecule?
Answer: The value was “only very weak inhibitors”.

Question: Which “inhibition of human 9cRDH activity (in words)” value [1] does the source give for `CCCCCCCCCCC/C=C\CCCCCO` [Petroselinyl Alcohol, petroselinyl alcohol] here?
Answer: The value was “did not inhibit; also recorded: not an inhibitor”.

Question: And the IC50 [1]?
Answer: Its IC50 is over 100 µM.

Question: What about the “inhibition of human 9cRDH activity (in words)” value ([1]; listed as petrosenlinyl alcohol) of the same molecule?
Answer: Its value is “only very weak inhibitors”.

Question: What about the “inhibition of mouse 9cRDH activity (in words)” value (mouse 9cRDH) of the same molecule?
Answer: Its value is “only very weak inhibitors”.

Question: Which results are given for `CC1(C)[C@@H](OC(=O)CCC(=O)O)CC[C@]2(C)[C@H]3C(=O)C=C4[C@@H]5C[C@@](C)(C(=O)O)CC[C@]5(C)CC[C@@]4(C)[C@]3(C)CC[C@@H]12` [carbenoxolone]?
Answer: influence of SCAD/alcohol dehydrogenase inhibiting reagents on recombinant human 9cRDH activity ([1]; phenylarsine oxide 15 μM): none of these compounds influenced; influence of SCAD/alcohol dehydrogenase inhibiting reagents on recombinant mouse 9cRDH activity (mouse 9cRDH; phenylarsine oxide 15 μM): none of these compounds influenced

Question: For `CC(C)=CCCC(C)=CC=O` [citral], which “influence of SCAD/alcohol dehydrogenase inhibiting reagents on recombinant human 9cRDH activity” value ([1]; […] 15 μM) is on record?
Answer: Its value is “none of these compounds influenced”.

Question: What about the “influence of SCAD/alcohol dehydrogenase inhibiting reagents on recombinant mouse 9cRDH activity” value (mouse 9cRDH; […] 15 μM) of the same molecule?
Answer: Its value is “none of these compounds influenced”.

Question: Which “effect on 9cRDH activity expressed” value [1] does the source give for `C[C@H](CCC(=O)[O-])[C@H]1CC[C@H]2[C@@H]3[C@H](O)C[C@@H]4C[C@H](O)CC[C@]4(C)[C@H]3C[C@H](O)[C@]12C.[Na+]` [sodium cholate] here?
Answer: The value was “rapidly inactivated”.

Question: For Triton X-100, which “effect on 9cRDH activity expressed” value [1] is on record?
Answer: Its value is “rapidly inactivated”.

From patent US7186534B1 (The Trustees of Columbia University in the City of New York, priority 1997, dated 2007)
